Experiments:
[1] = system: MCF-7 breast adenocarcinoma cells; assay: MCF-7 proliferation assay; type: cell-based; conditions: Homo sapiens, MCF7; MCF-7 cells, tritiated thymidine pulse after 48 hours with compound; read-out: ED50 (the source's name)
Description: MCF-7 breast adenocarcinoma cells (ATCC HTB 22) were maintained in MEM (minimal essential medium, phenol red-free, Sigma, St. Louis, Mo.) supplemented with 10% fetal bovine serum (FBS) (V/V), L-glutamine (2 mM), sodium pyruvate (1 mM), HEPES {(N-[2-hydroxyethyl]piperazine-N'-[2-ethanesulfonic acid]10 mM}, non-essential amino acids and bovine insulin (1 μg/ml) (maintenance medium). Ten days prior to assay, MCF-7 cells were switched to maintenance medium supplemented with 10% dextran coated charcoal stripped fetal bovine serum (DCC-FBS) assay medium) in place of 10% FBS to deplete internal stores of steroids. MCF-7 cells were removed from maintenance flasks using cell dissociation medium (Ca++/Mg++ free HBSS (phenol red-free) supplemented with 10 mM HEPES and 2 mM EDTA). Cells were washed twice with assay medium and adjusted to 80,000 cells/ml. […] Serial dilutions of drugs or DMSO as a diluent control were prepared in assay medium and […] to triplicate microcultures followed by […] assay medium for a final volume of […]. After an additional 48 hours at 37° C. in a 5% CO2 humidified incubator, microcultures were pulsed with tritiated thymidine (1 uCi/well) for 4 hours. Cultures were terminated by freezing at -70° C. for 24 hours followed by thawing and harvesting of microcultures. Samples were counted by liquid scintillation.

[2] = system: ovariectomized (OVX) rats, uterus; assay: Uterine weight in ovariectomized rats, four day oral dosing; type: in vivo, Sprague Dawley rats; conditions: for Uterine Weight (% inc. OVX): daily for 4 days, vs OVX control
Description: (§1) In the examples illustrating the methods, a post-menopausal model was used in which effects of different treatments upon various biological parameters were determined, including serum cholesterol concentration, uterine weight, estrogen receptor binding, uterine eosinophil peroxidase activity, MCF-7 cell proliferation, and bone density.
(§2) Seventy-five day old female Sprague Dawley rats (weight range of 200 to 225 g) were obtained from Charles River Laboratories (Portage, Mich.). The animals were either bilaterally ovariectomized (OVX) or exposed to a sham surgical procedure (Intact) at Charles River Laboratories, and then shipped after one week. Upon arrival, they were housed in metal hanging cages in groups of 3 or 4 per cage and had ad libi tum access to food (calcium content approximately 0.5%) and water for one week. Room temperature was maintained at 22.20°±1.70° C. with a minimum relative humidity of 40%. The photoperiod in the room was 12 hours light and 12 hours dark.
(§3) After a one week acclimation period (therefore, two weeks post-OVX), daily dosing with test compound was initiated. 17a-Ethynyl estradiol (EE2) (Sigma Chemical Co., St. Louis, Mo.), an orally available form of estrogen, or the test compound were given orally, unless otherwise stated, as a suspension in 1% carboxymethyl cellulose or dissolved in 20% β-cyclodextrin. Animals were dosed daily for 4 days. Following the dosing regimen, animals were weighed and anesthetized with a ketamine:xylazine (2:1, v:v) mixture. A blood sample was collected by cardiac puncture. The animals were then sacrificed by asphyxiation with CO2, the uterus was removed through a midline incision, and a wet uterine weight was determined.
(§4) Data presented in Table 1 below show comparative results among control ovariectomized rats, rats treated with EE2, and rats treated with certain compounds of the present invention. […] This uterine response to estrogen is well recognized in the art.
(§5) The data presented in Table 1 reflect the response of 5 or 6 rats per treatment.

MCF-7 Estrogen Receptor = molecular target: T1, MCF-7 Estrogen Receptor (Homo sapiens, UniProt P03372); assay: MCF-7 estrogen receptor binding assay, competition with tritiated 17β-estradiol
T1 construct: protein from MCF-7 lysates; endogenous in cells; host or cells: MCF-7 (lysate)
T1 sequence (P03372 1-595): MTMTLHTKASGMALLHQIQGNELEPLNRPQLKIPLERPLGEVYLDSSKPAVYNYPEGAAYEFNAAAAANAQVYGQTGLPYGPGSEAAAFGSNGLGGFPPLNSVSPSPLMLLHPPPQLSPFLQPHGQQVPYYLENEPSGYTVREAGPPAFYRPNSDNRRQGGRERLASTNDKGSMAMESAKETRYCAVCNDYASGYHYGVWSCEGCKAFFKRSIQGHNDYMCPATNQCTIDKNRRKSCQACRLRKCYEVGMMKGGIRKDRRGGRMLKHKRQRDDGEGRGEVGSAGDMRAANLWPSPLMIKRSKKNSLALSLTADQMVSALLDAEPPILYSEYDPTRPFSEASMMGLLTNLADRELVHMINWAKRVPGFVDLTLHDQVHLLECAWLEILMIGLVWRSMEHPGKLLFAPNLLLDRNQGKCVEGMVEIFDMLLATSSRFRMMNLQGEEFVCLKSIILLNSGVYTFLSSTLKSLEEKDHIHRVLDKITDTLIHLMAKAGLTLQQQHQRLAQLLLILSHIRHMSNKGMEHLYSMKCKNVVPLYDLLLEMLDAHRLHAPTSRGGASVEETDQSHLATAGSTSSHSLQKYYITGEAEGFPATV
Description: Binding was allowed to take place for 18 hours at 5-- C., followed by the addition of 0.07 mL of dextran/charcoal and centrifugation to remove non-bound radioligand. Aliquots of supernate containing bound radioligand were mixed with scintillant and counted. Relative binding affinity (RBA) was calculated as: [formula]

serum cholesterol = assay: Serum cholesterol in ovariectomized rats, four day oral dosing; type: in vivo, Sprague Dawley rats; conditions: for Serum Cholesterol (% decrease OVX): daily for 4 days, vs OVX control
Description: as §1, §2, §3
Blood samples were allowed to clot at room temperature for 2 hours, and serum was obtained following centrifugation for 10 minutes at 3000 rpm. Serum cholesterol was determined using a Boehringer Mannheim Diagnostics high performance cholesterol assay. Briefly the cholesterol was oxidized to cholest-4-en-3-one and hydrogen peroxide. The hydrogen peroxide was then reacted with phenol and 4-aminophenazone in the presence of peroxidase to produce a p-quinone imine dye, which was read spectrophotemetrically at 500 nm. Cholesterol concentration was then calculated against a standard curve. The entire assay was automated using a Biomek Automated Workstation.
as §4, §5

[3] = system: uterine eosinophil peroxidase activity; assay: Uterine eosinophil peroxidase (EPO) assay in ovariectomized rats, four day dosing; type: in vivo, Sprague Dawley rats; set-up: Uterine EPO (Vmax): unit not given beside the values; conditions: for Uterine EPO (Vmax): daily for 4 days
Description: as §1, §2, §3
Uteri were kept at 4° C. until time of enzymatic analysis. The uteri were then homogenized in 50 volumes of 50 mM Tris buffer (pH--8.0) containing 0.005% Triton X-100. Upon addition of 0.01% hydrogen peroxide and 10 mM o-phenylenediamine (final concentrations) in Tris buffer, increase in absorbance was monitored for one minute at 450 nm. The presence of eosinophils in the uterus, as measured by assay of eosinophil peroxidase activity, is an indication of estrogenic activity of a compound. The maximal velocity of a 15 second interval was determined over the initial, linear portion of the reaction curve.
As is expressed in the data below, estrogenicity also was assessed by evaluating the adverse response of eosinophil infiltration into the uterus.
as §5

Structure (SMILES) | IC50 [1] | Uterine Weight (% inc. OVX) ([2]; 0.1 mg/kg PO) | Uterine Weight (% inc. OVX) ([2]; 1 mg/kg PO) | Uterine Weight (% inc. OVX) ([2]; 10 mg/kg PO) | Relative binding affinity (RBA) (MCF-7 Estrogen Receptor) | Serum Cholesterol (% decrease OVX) (serum cholesterol; 0.1 mg/kg PO) | Serum Cholesterol (% decrease OVX) (serum cholesterol; 1 mg/kg PO) | Serum Cholesterol (% decrease OVX) (serum cholesterol; 10 mg/kg PO) | Uterine EPO (Vmax) ([3]; 0.1 mg/kg PO) | Uterine EPO (Vmax) ([3]; 1 mg/kg PO) | Uterine EPO (Vmax) ([3]; 10 mg/kg PO) | action on the uterus / uterine weight, in words ([2]; orally, 0.1 mg/Kg/day) | serum cholesterol, in words (serum cholesterol; orally, 0.1 mg/Kg/day) | eosinophil infiltration into the uterus, in words ([3]; ovariectomized rats, by assay of eosinophil peroxidase activity)
CN(CCN1CCCCC1)c1ccc(C(=O)c2c(-c3ccc(O)cc3)sc3cc(O)ccc23)cc1 [Example 6, 6-hydroxy-2-(4-hydroxyphenyl)-3-[4-(N-methyl-N-2-(piperidin-1-yl)ethylamino)benzoyl]-benzo[b]thiophene] | 0.01 µM | 17.1% | 45.4% | 43.0% | 0.19 | 4.7% | 42.0% | 65.1% | 4.5 | 3.3 | 6.0 |  |  | 
O=C(c1ccc(S(=O)(=O)CCN2CCCCC2)cc1)c1c(-c2ccc(O)cc2)sc2cc(O)ccc12 [Example 8, 6-hydroxy-2-(4-hydroxyphenyl)-3-[4-(2-(piperidin-1-yl)ethylsulfonyl)benzoyl]benzo[b]thiophene] | 0.03 µM | 16.2% | 66.9% | 75.0% |  | -23.3% | 17.2% | 62.3% | 4.8 | 13.5 | 23.1 |  |  | 
O=C(c1ccc(SCCN2CCCCC2)cc1)c1c(-c2ccc(O)cc2)sc2cc(O)ccc12 [Example 4, 6-hydroxy-2-(4-hydroxyphenyl)-3-[4-(2-(piperidin-1-yl)ethylthio)benzoyl]-benzo[b]thiophene] | 0.0009 µM | 3.5% | 23.1% | 16.7% |  | -16.6% | 37.5% | 47.5% | 3.3 | 1.2 | 1.8 |  |  | 
C#C[C@]1(O)CC[C@H]2[C@@H]3CCc4cc(O)ccc4[C@H]3CC[C@@]21C [Ethynyl estradiol, 17a-Ethynyl estradiol, reference compound] |  | 144.1% |  |  |  | 80.3% |  |  | 123.9 |  |  | marked stimulatory action on the uterus | decrease in serum cholesterol | substantial, expected increase in eosinophil infiltration
O=C(c1ccc(NCCN2CCCCC2)cc1)c1c(-c2ccc(O)cc2)sc2cc(O)ccc12 [Example 2] | 0.002 µM | -5.0% | 15.8% | 35.6% |  | -0.5% | 13.6% | 42.4% | 1.8 | 2.4 | 2.1 |  |  | 
COc1ccc(-c2sc3cc(OC)ccc3c2C(=O)c2ccc(S(=O)(=O)CCN3CCCCC3)cc2)cc1 [Example 7, 6-methoxy-2-(4-methoxyphenyl)-3-[4-(2-(piperidin-1-yl)ethylsulfonyl)benzoyl]benzo[b]thiophene] | 1 µM | 26.4% | 18.6% | 48.4% | < 0.002 | -4.4% | 12.0% | 28.7% | 7.5 | 4.8 | 8.4 |  |  | 

Reference: patent US5962475A, “Substituted benzo(B)thiophene compounds having activity as selective estrogen receptor modulators” (Eli Lilly and Company, priority 1997, dated 1999)
